Source: patent US11440883B2, “Heterocyclic compound and use thereof” (Takeda Pharmaceutical Company Limited, priority 2017, dated 2022)

Columns and labels:
[1] = target: T1, human orexin type 2 receptor (Homo sapiens, UniProt O43614); experiment: Measurement of orexin type 2 receptor agonist activity (Fluo-4 calcium fluorescence, FDSS); assay type: cell-based; conditions: 3 μM test compound; CHO cells expressing human OX2 receptor; DMSO = 0%, orexin A (human) = 100%
T1 construct: expressed in transfected cells
T1 sequence (O43614 1-444): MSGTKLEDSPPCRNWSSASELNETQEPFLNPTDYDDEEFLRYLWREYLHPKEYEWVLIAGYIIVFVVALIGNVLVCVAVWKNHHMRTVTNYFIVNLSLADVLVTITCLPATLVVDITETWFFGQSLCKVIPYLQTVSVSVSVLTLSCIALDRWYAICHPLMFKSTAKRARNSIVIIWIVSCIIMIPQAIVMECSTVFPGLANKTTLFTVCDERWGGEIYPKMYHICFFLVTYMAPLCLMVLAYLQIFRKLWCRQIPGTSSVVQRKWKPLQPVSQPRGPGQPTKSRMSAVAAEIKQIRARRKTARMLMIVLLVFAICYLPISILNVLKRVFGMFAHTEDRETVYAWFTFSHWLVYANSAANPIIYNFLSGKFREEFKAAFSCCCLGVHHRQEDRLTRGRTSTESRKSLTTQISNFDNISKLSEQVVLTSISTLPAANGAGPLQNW
From the text: To obtain a cell clone stably expressing human orexin type 2 receptor, human orexin type 2 receptor cDNA was inserted into pcDNA3.1(+) plasmid vector (Invitrogen), and a plasmid DNA for expression of human orexin type 2 receptor (pcDNA3.1(+)/hOX2R) was cloned. The plasmid DNA was introduced into CHO-dhfr cell by an electroporation method, and human orexin type 2 receptor expressing clone cells were obtained by limiting dilution method by using G418 drug resistance as a selection marker.
CHO cells forcibly expressing human OX2 receptor were seeded in each well of 384 well black transparent bottom plate (BD Falcon) at 7,500 cells/well, and cultured for one day in a 5% CO2 incubator at 37° C. […] A test compound prepared by diluting with assay buffer B (HBSS, 20 mM HEPES, 0.1% BSA) was added at 10 μL/well, and the fluorescence value was measured by FDSSUCELL (Hamamatsu Photonics K.K.) every one sec for 1 min, and thereafter every two sec for 1 min 40 sec. The activity (%) of the test compound was calculated assuming that variation in the fluorescence value when DMSO was added instead of the test compound was 0%, and variation in the fluorescence value when orexin A (human) (PEPTIDE INSTITUTE, INC.) was added at the final concentration of 10 nM was 100%.

[2] = system: cynomolgus monkeys; experiment: Evaluation of wake-promoting effects in cynomolgus monkeys (EEG/EMG/EOG); assay type: in vivo, cynomolgus monkey; conditions: Macaca fascicularis, sc, at ZT12, time spent in wakefulness for 4 h after administration, male cynomolgus monkeys, read-out: Wakefulness time (% of vehicle treatment) (Mean, n = 1-2)

Compound	OX2R agonist activity (3 μM, %) [1]	response vs control in vivo at 1 mg/kg [2]
CCNC(=O)N1CCC[C@H](NS(C)(=O)=O)[C@@H]1Cc1cccc(O[Si](C(C)C)(C(C)C)C(C)C)c1 (relative stereo) [Example 17, cis-N-ethyl-3-((methylsulfonyl)amino)-2-(3-((triisopropylsilyl)oxy)benzyl)piperidine-1-carboxamide]	29%	–
CCS(=O)(=O)N[C@H]1CCN(C(=O)C(C)(C)O)[C@H]1Cc1cccc(-c2cccc(F)c2)c1F [Example 482, N-((2S,3S)-2-((2,3′-difluorobiphenyl-3-yl)methyl)-1-(2-hydroxy-2-methylpropanoyl)pyrrolidin-3-yl)ethanesulfonamide]	–	281%
CC(C)(O)C(=O)N1CC[C@H](NS(C)(=O)=O)[C@@H]1Cc1cccc(-c2cc(F)cc(F)c2)c1F [Example 483, N-((2S,3S)-1-(2-hydroxy-2-methylpropanoyl)-2-((2,3′,5′-trifluorobiphenyl-3-yl)methyl)pyrrolidin-3-yl)methanesulfonamide]	–	359%
CCS(=O)(=O)N[C@H]1CCN(C(=O)C(C)(C)O)[C@H]1Cc1cccc(-c2cc(F)cc(F)c2)c1F [Example 484, N-((2S,3S)-1-(2-hydroxy-2-methylpropanoyl)-2-((2,3′,5′-trifluorobiphenyl-3-yl)methyl)pyrrolidin-3-yl)ethanesulfonamide]	–	492%
